Measurements from ChEMBL document CHEMBL4627246, “Pyroglutamide-Based P2X7 Receptor Antagonists Targeting Inflammatory Bowel Disease” (J Med Chem, 2020).

Tests used:
Format in all cases: cell-based
[1] = tested on: CCRF-CEM; test: Cytotoxicity against human CCRF-CEM cells assessed as effect on cell growth at 10 uM incubated for 48 hrs by sulforhodamine B assay
[2] = tested on: RPMI-8226; test: Cytotoxicity against human RPMI8226 cells assessed as effect on cell growth at 10 uM incubated for 48 hrs by sulforhodamine B assay; details: rpmi-8226, 48 h
[3] = tested on: HL-60(TB); test: Cytotoxicity against human HL-60(TB) cells assessed as effect on cell growth at 10 uM incubated for 48 hrs by sulforhodamine B assay
[4] = tested on: NCI-H460; test: Cytotoxicity against human NCI-H460 cells assessed as effect on cell growth at 10 uM incubated for 48 hrs by sulforhodamine B assay; details: nci-h460, 48 h
[5] = tested on: HCT-116; test: Cytotoxicity against human HCT116 cells assessed as effect on cell growth at 10 uM incubated for 48 hrs by sulforhodamine B assay; details: hct-116, 48 h
[6] = tested on: KM12; test: Cytotoxicity against human KM12 cells assessed as effect on cell growth at 10 uM incubated for 48 hrs by sulforhodamine B assay; details: km12, 48 h
[7] = tested on: SF-295; test: Cytotoxicity against human SF295 cells assessed as effect on cell growth at 10 uM incubated for 48 hrs by sulforhodamine B assay; details: sf-295, 48 h
[8] = tested on: SNB-75; test: Cytotoxicity against human SNB75 cells assessed as effect on cell growth at 10 uM incubated for 48 hrs by sulforhodamine B assay; details: snb-75, 48 h
[9] = tested on: U-251; test: Cytotoxicity against human U251 cells assessed as effect on cell growth at 10 uM incubated for 48 hrs by sulforhodamine B assay; details: u-251, 48 h
[10] = tested on: LOX IMVI; test: Cytotoxicity against human LOXIMVI cells assessed as effect on cell growth at 10 uM incubated for 48 hrs by sulforhodamine B assay
[11] = tested on: Malme-3M; test: Cytotoxicity against human MALME-3M cells assessed as effect on cell growth at 10 uM incubated for 48 hrs by sulforhodamine B assay
[12] = tested on: UACC-257; test: Cytotoxicity against human UACC257 cells assessed as effect on cell growth at 10 uM incubated for 48 hrs by sulforhodamine B assay; details: uacc-257, 48 h
[13] = tested on: IGROV-1; test: Cytotoxicity against human IGROV1 cells assessed as effect on cell growth at 10 uM incubated for 48 hrs by sulforhodamine B assay; details: igrov-1, 48 h
[14] = tested on: OVCAR-3; test: Cytotoxicity against human OVCAR3 cells assessed as effect on cell growth at 10 uM incubated for 48 hrs by sulforhodamine B assay; details: ovcar-3, 48 h
[15] = tested on: OVCAR-4; test: Cytotoxicity against human OVCAR4 cells assessed as effect on cell growth at 10 uM incubated for 48 hrs by sulforhodamine B assay; details: ovcar-4, 48 h
[16] = tested on: NCI/ADR-RES; test: Cytotoxicity against human NCI/ADR-RES cells assessed as effect on cell growth at 10 uM incubated for 48 hrs by sulforhodamine B assay
[17] = tested on: ACHN; test: Cytotoxicity against human ACHN cells assessed as effect on cell growth at 10 uM incubated for 48 hrs by sulforhodamine B assay
[18] = tested on: PC-3; test: Cytotoxicity against human PC3 cells assessed as effect on cell growth at 10 uM incubated for 48 hrs by sulforhodamine B assay; details: pc-3, 48 h
[19] = tested on: T47D; test: Cytotoxicity against human T47D cells assessed as effect on cell growth at 10 uM incubated for 48 hrs by sulforhodamine B assay
[20] = tested on: MDA-MB-468; test: Cytotoxicity against human MDA-MB-468 cells assessed as effect on cell growth at 10 uM incubated for 48 hrs by sulforhodamine B assay; details: mda-mb-468, 48 h

Measured: Activity

O=C(NCc1ccc(Cl)cc1Cl)[C@@H]1CCC(=O)N1c1ccc(Cl)cc1Cl
Non-Toxic: all assays above

CN1C(=O)C(C)(C)C[C@H]1C(=O)NCc1cccc(C(F)(F)F)c1Cl
Non-Toxic: all assays above

O=C(NCc1ccccc1Cl)[C@@H]1CCC(=O)N1Cc1ccccc1
Non-Toxic: all assays above

COc1ccc(CN2C(=O)[C@@H]3C/C(=C\N(C)C)C(=O)N3C2N(C)C)c(OC)c1 (stereo not given in full)
Non-Toxic: all assays above

CCCCCCN1C(=O)[C@@H]2C/C(=C\N(C)C)C(=O)N2C1N(C)C (stereo not given in full)
Non-Toxic: all assays above

CN1C(=O)CC[C@H]1C(=O)NCc1cccc(C(F)(F)F)c1Cl [GSK1482160]
Non-Toxic: all assays above

O=C(NCc1ccc(Cl)cc1Cl)[C@@H]1CCC(=O)N1c1ccsc1
Non-Toxic: all assays above

O=C(NCc1ccc(Cl)cc1Cl)[C@@H]1CCC(=O)N1c1nccs1
Non-Toxic: all assays above

O=C(NCc1ccc(Cl)cc1Cl)[C@@H]1CCC(=O)N1c1ccc(Cl)cc1
Non-Toxic: all assays above
